Patent publication US10736902B2, “Method of treating triple negative breast cancer” (GEISTLICH PHARMA AG, priority 2016, dated 2020)
Read-outs that look alike come from different tables or passages of the source.

Assays:
[1] = system: human peripheral blood monocytes; experiment: Safety in non-neoplastic cells: cell death of monocytes; format: cell-based; details: for cell death in human peripheral blood monocytes: 100 microMol up to 5000 microMol; for effect on peripherally derived human monocytes: high doses (5 mM), after 24 hours (FIG. 7B)
[2] = Half-life in human fresh blood at 37° C.; format: in vitro ADME; details: for half-life: human, fresh whole blood
Procedure: The half-life of 2250 was measured in human fresh blood at 37° C.

[3] = system: ER negative breast cancer cells (BT-20 and MDA-MB-231) and ER positive cells (BT-474 and MCF-7); experiment: Apoptosis/necrosis (annexin V / propidium iodide) and ROS in breast cancer cells; format: cell-based; details: for dose dependence of cell death: ER-positive and ER-negative breast cancer cells, increasing concentrations, most pronounced with TNBC cells; for generation of ROS: substantially reduced by NAC, significantly increased with BSO
Procedure: Methods: Primary and metastatic ER negative breast cancer cells (BT-20 and MDA-MB-231) and ER positive cells (BT-474 and MCF-7) were separately treated with increasing concentrations of Taurolidine and 2250 as shown in FIG. 7A and FIG. 8A. Apoptosis and necrosis were evaluated based on phosphatidylserine externalization using annexin V and propidium iodide (PI). The contribution of caspases 3, 8 and 9 on apoptosis, and autophagy was evaluated by both flow cytometry and western blotting. The impact of reactive oxygen species (ROS) was evaluated using the radical scavenger agent n-acetylcysteine (NAC) and buthionine-sulfoximine (BSO), a glutathione-depleting agent. Necroptosis was evaluated using nescrostatin-1, a potent inhibitor of the process.

[4] = system: tumor stem cells; experiment: Tumor stem cell killing in tissue culture in vitro; format: cell-based
[5] = Water solubility / isotonicity; format: physicochemical
[6] = Wound healing after administration during or after surgery; details: administered during surgery and immediately after surgery

SMILES	cell death in human peripheral blood monocytes [1]	effect on peripherally derived human monocytes [1]	half-life ([2]; human blood, same test, read-out: half-life in human blood) [h]	dose dependence of cell death [3]	generation of ROS [3]	killing of tumor stem cells [4]	concentration effective at killing tumor stem cells ([4]; tissue culture in vitro) [µg/mL]	solubility in water ([5]; no PVP necessary)	concentration of isotonic solution ([5]; solution) [%]	Concentration of 2250 measured ([2]; human fresh blood, 37° C., 0-1 hours) [ppm]	Concentration of 2250 measured ([2]; human fresh blood, 37° C., 2 hours) [ppm]	half-life ([2]; human blood, read-out: half-life in human blood) [h]	half-life ([2]; human fresh blood, 37° C., calculated from measured concentrations, read-out: half-life (calculated) (converted)) [h]	effect on wound healing [6]
O=S1(=O)CCN(CN2CCS(=O)(=O)NC2)CN1 [taurolidine, reference compound]	did not induce any significant cell death	no significant effect	~0.5	Dose-dependent increases in cell death	induced generation of ROS	kill tumor stem cells	0.01							
O=S1(=O)CCNCN1 [taurultam]						kill tumor stem cells								
O=S1(=O)CCOCN1 [C-2250, Tetrahydro1,4,5-oxathiazin-4-dioxide]	did not induce any significant cell death	no significant effect		Dose-dependent increases in cell death	induced generation of ROS			very soluble in water	3.2	50	47.7	> 24	~40	do not hinder wound healing
